Two compounds from patent publication US8791158B2, “Methods of treating meibomian gland dysfunction” (GTX, Inc., priority 2010, dated 2014) can be followed below.

Series [1] deals with acute orchiectomized (ORX) rabbit model. Nature of the series: Palmitate:stearate ratios in tears, Meibomian glands and harderian glands, Example 4. The format is in vivo. The note with it: for Palmitate:stearate ratios in Meibomian glands / Palmitate:stearate ratios in harderian glands: ORX rabbits, topical 2.5 mg/kg once daily 14 d, mean. The source says:
The goal of this study was to compare the effects of Compound 1 and Compound 2, two tissue selective SARMs with differing androgenic potential, in modulating tear composition in an acute orchiectomized (ORX) rabbit model.
Twenty New Zealand white rabbits weighing approximately 3 lbs were allowed to acclimate for two weeks before the start of the study Animals were weighed on day 0 of the study, randomized according to body weight and allotted to the following dose groups:
Surgeries for the study were staggered to limit the maximum number of surgeries per day to six. One animal from each group was entered into the study every day and either sham or orchiectomy was performed as described below Animals were premedicated with glycopyrrolate (0.02 mg/kg) and anesthesia was induced with a combination of ketamine (15 mg/kg): medetomidine (0.25 mg/kg). Anesthesia was maintained with isoflurane (1 liter/hr). ORX was performed using a scrotal incision. For the sham operated animals, the scrotal sac was incised and skin closed using tissue glue Animals were revived from anesthesia using atipamezole (1 mg/kg) SQ. Analgesia was provided with buprenorphine (0.05 mg/kg).
Immediately after the animals had recovered from anesthesia, they were dosed with the appropriate test articles as indicated above. Drug dosing was done once daily for 14 d. Blood samples were collected at 30, 60, 120, 240 and 1440 minutes after dose administration on day 11 for pharmacokinetic analyses. Plasma was separated for HPLC analysis of parent drug concentrations. Tears were collected using Schirmer tear strips (Alcon, Tex.) on day 0 before surgery and 24 hours after the last administration of drug (day 15). The tears were stored at −80° C. until shipment for analysis. Lipids were hydrolyzed, extracted from the Schirmer strips, derivatized, and subjected to GC-FID to evaluate the lipid composition. The samples were evaluated for the presence of 28 saturated and unsaturated fatty acids that included methyl caprate (C10:0), methyl laurate (C12:0), methyl 11-dodecenoate (C12:1), methyl myristate (C14:0), methyl myristoleate (C14:1), methyl palmitate (C16:0), methyl palmitoleate (C16:1), methyl stearate (C18:0), methyl oleate (C18:1), methyl vaccenate (C18:1), methyl linoleate (C18:2), methyl gamma linoleate (C18:3), methyl linoleate (C18:3), methyl arachidate (C20:0), methyl 11-eicosenoate (C20:1), methyl 11,14 eicosadinoate (C20:2), methyl 8,11,14 eicosatrienoate (C20:3), methyl eicosapentaenoate (C20:5), methyl behenate (C22:0), methyl erucate (C22:1), methyl 13,16 docosaenoate (C22:2), methyl docosatetraenoate (C22:4), methyl docosapentaenoate (C22:5), methyl docosahexaenoate (C22:6), methyl lignocerate (C24:0), and methyl nervonate (C24:1). Area under the curve for each individual peak was determined using the GC ChemStation software. To normalize for the tear content, the lipid composition was expressed as a ratio of the lipid that was most affected by castration (palmitate) to one which remained relatively constant (stearate).
At the end of the study, the animals were euthanatized. The left harderian and Meibomian glands were collected for lipid analysis and snap frozen using an ethanol:dry ice bath. Samples were stored at −80° C. until shipment for analysis. The right eyelids were embedded in OCT medium and shipped to Paragon Biosciences (Washington D.C.) for histology and Oil-red-O quantification of lipids. Images of three separate fields were taken from each eyelid at random and the amount of cells staining red in each field was scored using commercially available software. A scoring scheme was adopted with a scale of 0-4 to evaluate the staining intensities with 0=<1% cells stained, 1+ for 2-5% of cells stained, 2+=6-10% stain, 3+=11-20% staining, 4+ for >21% cells stained.

A short description of series [2]: Plasma concentration of Compound 2 after topical or subcutaneous dosing, Example 3. The format is in vivo, rabbit. As to conditions: one hour after last dose, LCMS. The method, then: Drug dosing was done once daily for 14 days. Blood was collected at 60 minutes post administration of the last dose of drug and plasma separated for HPLC analysis of parent drug concentrations.
To normalize for the tear content, the lipid composition was expressed as a ratio of the lipid that was most affected by castration (palmitate) to one which remained relatively constant (stearate). Blood was also collected on day 15 (24 hours after last drug administration) of the study, plasma separated and analyzed for Compound 2.
Systemic exposures after topical and subcutaneous administration were determined in peripheral blood samples collected one hour after drug administration on the last day of the study. Plasma concentrations of Compound 2 were measured using LCMS. Mean plasma concentrations of Compound 2 following topical administration were 1177±398.72 nM, while mean levels were 1210±311.93 nM in animals that received subcutaneous (SQ) doses.

Each structure is given as a SMILES string. Marks after values point to notes of the source that are not given here.

Consider `C[C@](O)(COc1ccc(C#N)cc1)C(=O)Nc1ccc(C#N)c(C(F)(F)F)c1` [Compound 1, (S)—N-(4-Cyano-3-(trifluoromethyl)phenyl)-3-(4-cyanophenoxy)-2-hydroxy-2-methylpropanamide], for which, in series [1], the “Palmitate:stearate ratios in Meibomian glands” value is 4.07^b and the “Palmitate:stearate ratios in harderian glands” value was 5.1. Further, in series [1] (topical 2.5 mg/kg), the “Change of palmitate:stearate ratio in Meibomian glands” value is listed as “two fold increase” and the “Change of palmitate:stearate ratio in harderian glands compared to control animals” value was “no change”.
`C[C@](O)(COc1ccc(C#N)c(F)c1)C(=O)Nc1ccc(C#N)c(C(F)(F)F)c1` [Compound 2, (S)—N-(4-cyano-3-(trifluoromethyl)phenyl)-3-(4-cyano-3-fluorophenoxy)-2-hydroxy-2-methylpropanamide]: the concentration at 1 h in series [2] (rabbit, plasma, subcutaneous 2.5 mg/kg) worked out at 1210 ± 312 nM. The concentration at 1 h in series [2] (rabbit, plasma, topical 2.5 mg/kg) came to 1180 ± 399 nM. Besides, the concentration at 1 h in series [2] (subcutaneous 2.5 mg/kg) was 1210 nM. In series [2] (topical 2.5 mg/kg), this compound had a concentration at 1 h of 1177 nM. In series [1], the “Palmitate:stearate ratios in Meibomian glands” value is 2.82 and the “Palmitate:stearate ratios in harderian glands” value is reported as 7.76. In addition, in series [1] (topical 2.5 mg/kg), the “Change of palmitate:stearate ratio in Meibomian glands” value is listed as “mild increase”, the “Change of palmitate:stearate ratio in harderian glands compared to control animals” value was “significant increase”, the “Increase of tear palmitate:stearate ratio over intact vehicle treated animals” value is around 1.5 fold and the “Increase of tear palmitate:stearate ratio relative to ORX vehicle-treated animals” value is “approximately 2.5 times”.
